Test system: yeast genes (expressed mRNA)
Experiment: DNA chip measurement of expressed mRNA of yeast genes after culture with a toxic chemical substance
Format: cell-based, Saccharomyces cerevisiae S288C
Details: for level of expressed mRNA in the presence of chemical substance / level in the absence of chemical substance: cultured two hours with the chemical substance; for The level of expressed mRNA in the presence of chemical substance/The level of expressed mRNA in the absence of chemical substance: cultured two hours with substance
Procedure, shortened: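 Two-hour exposure of growing S. cerevisiae S288C (YPD, 25° C) to a sublethal toxicant preceded RNA isolation. Fluorescent cDNA was hybridized to a whole-genome array; a treated-to-untreated signal ratio of two or more was taken as significant.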

[Cl][Cd][Cl] [(2), CdCl2]
level of expressed mRNA in the presence of chemical substance / level in the absence of chemical substance (yeast gene YDR128W): 3.9
level of expressed mRNA in the presence of chemical substance / level in the absence of chemical substance (yeast gene YDR133C): 1.1
level of expressed mRNA in the presence of chemical substance / level in the absence of chemical substance (yeast gene YDR250C): 1.4
level of expressed mRNA in the presence of chemical substance / level in the absence of chemical substance (yeast gene YDR278C): 3.2
level of expressed mRNA in the presence of chemical substance / level in the absence of chemical substance (yeast gene YDR281C): 2.6
The level of expressed mRNA in the presence of chemical substance/The level of expressed mRNA in the absence of chemical substance (yeast gene YDR330W): 1.5
level of expressed mRNA in the presence of chemical substance / level in the absence of chemical substance (yeast gene YDR366C): 2.0
The level of expressed mRNA in the presence of chemical substance/The level of expressed mRNA in the absence of chemical substance (yeast gene YDR411C): 2.8
The level of expressed mRNA in the presence of chemical substance/The level of expressed mRNA in the absence of chemical substance (yeast gene YDR511W): 1.7
The level of expressed mRNA in the presence of chemical substance/The level of expressed mRNA in the absence of chemical substance (yeast gene YDR545W): 1.2
The level of expressed mRNA in the presence of chemical substance/The level of expressed mRNA in the absence of chemical substance (yeast gene YEL001C): 1.0
The level of expressed mRNA in the presence of chemical substance/The level of expressed mRNA in the absence of chemical substance (yeast gene YER004W): 1.5
The level of expressed mRNA in the presence of chemical substance/The level of expressed mRNA in the absence of chemical substance (yeast gene YER035W): 1.6
The level of expressed mRNA in the presence of chemical substance/The level of expressed mRNA in the absence of chemical substance (yeast gene YER079W): 1.6
The level of expressed mRNA in the presence of chemical substance/The level of expressed mRNA in the absence of chemical substance (yeast gene YER106W): 0.7
The level of expressed mRNA in the presence of chemical substance/The level of expressed mRNA in the absence of chemical substance (yeast gene YER158C): 0.9
The level of expressed mRNA in the presence of chemical substance/The level of expressed mRNA in the absence of chemical substance (yeast gene YER163C): 2.4
The level of expressed mRNA in the presence of chemical substance/The level of expressed mRNA in the absence of chemical substance (yeast gene YER175C): 1.2
The level of expressed mRNA in the presence of chemical substance/The level of expressed mRNA in the absence of chemical substance (yeast gene YFL006W): 2.8
The level of expressed mRNA in the presence of chemical substance/The level of expressed mRNA in the absence of chemical substance (yeast gene YFL010C): 4.8
The level of expressed mRNA in the presence of chemical substance/The level of expressed mRNA in the absence of chemical substance (yeast gene YFL024C): 1.1
The level of expressed mRNA in the presence of chemical substance/The level of expressed mRNA in the absence of chemical substance (yeast gene YFL032W): 1.5
level of expressed mRNA in the presence of chemical substance / level in the absence of chemical substance (yeast gene YFR026C): 2.0
The level of expressed mRNA in the presence of chemical substance/The level of expressed mRNA in the absence of chemical substance (yeast gene YGL037C): 2.7
The level of expressed mRNA in the presence of chemical substance/The level of expressed mRNA in the absence of chemical substance (yeast gene YGL047W): 1.9
The level of expressed mRNA in the presence of chemical substance/The level of expressed mRNA in the absence of chemical substance (yeast gene YGL053W): 1.5
level of expressed mRNA in the presence of chemical substance / level in the absence of chemical substance (yeast gene YGL088W): 2.1
The level of expressed mRNA in the presence of chemical substance/The level of expressed mRNA in the absence of chemical substance (yeast gene YGL121C): 5.0
The level of expressed mRNA in the presence of chemical substance/The level of expressed mRNA in the absence of chemical substance (yeast gene YGL199C): 1.7
level of expressed mRNA in the presence of chemical substance / level in the absence of chemical substance (yeast gene YGR038W): 1.2
The level of expressed mRNA in the presence of chemical substance/The level of expressed mRNA in the absence of chemical substance (yeast gene YGR101W): 1.3
The level of expressed mRNA in the presence of chemical substance/The level of expressed mRNA in the absence of chemical substance (yeast gene YGR110W): 3.1
The level of expressed mRNA in the presence of chemical substance/The level of expressed mRNA in the absence of chemical substance (yeast gene YGR130C): 0.7
level of expressed mRNA in the presence of chemical substance / level in the absence of chemical substance (yeast gene YGR139W): 3.7
The level of expressed mRNA in the presence of chemical substance/The level of expressed mRNA in the absence of chemical substance (yeast gene YGR154C): 2.9
The level of expressed mRNA in the presence of chemical substance/The level of expressed mRNA in the absence of chemical substance (yeast gene YGR221C): 2.2
level of expressed mRNA in the presence of chemical substance / level in the absence of chemical substance (yeast gene YGR243W): 2.2
level of expressed mRNA in the presence of chemical substance / level in the absence of chemical substance (yeast gene YGR293C): 1.9
level of expressed mRNA in the presence of chemical substance / level in the absence of chemical substance (yeast gene YHL006C): 1.4
level of expressed mRNA in the presence of chemical substance / level in the absence of chemical substance (yeast gene YHR095W): 2.6
level of expressed mRNA in the presence of chemical substance / level in the absence of chemical substance (yeast gene YHR105W): 0.8
The level of expressed mRNA in the presence of chemical substance/The level of expressed mRNA in the absence of chemical substance (yeast gene YHR138C): 1.8
level of expressed mRNA in the presence of chemical substance / level in the absence of chemical substance (yeast gene YHR181W): 0.7
The level of expressed mRNA in the presence of chemical substance/The level of expressed mRNA in the absence of chemical substance (yeast gene YHR199C): 2.0
The level of expressed mRNA in the presence of chemical substance/The level of expressed mRNA in the absence of chemical substance (yeast gene YIL023C): 1.2
The level of expressed mRNA in the presence of chemical substance/The level of expressed mRNA in the absence of chemical substance (yeast gene YIL041W): 1.2
The level of expressed mRNA in the presence of chemical substance/The level of expressed mRNA in the absence of chemical substance (yeast gene YIL087C): 1.9
level of expressed mRNA in the presence of chemical substance / level in the absence of chemical substance (yeast gene YIL127C): 4.8
level of expressed mRNA in the presence of chemical substance / level in the absence of chemical substance (yeast gene YJL017W): 1.7
level of expressed mRNA in the presence of chemical substance / level in the absence of chemical substance (yeast gene YJL037W): 1.4
The level of expressed mRNA in the presence of chemical substance/The level of expressed mRNA in the absence of chemical substance (yeast gene YJL057C): 1.2
The level of expressed mRNA in the presence of chemical substance/The level of expressed mRNA in the absence of chemical substance (yeast gene YJL066C): 1.2
The level of expressed mRNA in the presence of chemical substance/The level of expressed mRNA in the absence of chemical substance (yeast gene YJL082W): 0.8

Source: patent US20100041089A1, “IMPROVED METHOD FOR DETECTING CHEMICAL […]” (priority 2006, published 2010)
